# ChEMBL document CHEMBL1909046, “DrugMatrix in vitro pharmacology data”
# Key:
# [1] = DRUGMATRIX: Leukotriene, BLT (LTB4) radioligand binding (ligand: [3H]LTB4); format: cell membranes, Membrane; conditions: u-937; Not Active = under 50% inhibition at 10 µM
# Glycine receptor = Glycine receptor (Rattus norvegicus, UniProt P22771+P24524+P07727+P20781); format: cell membranes, Wistar, Spinal cord, Membrane; further: in other assays of this panel Not Active means under 50% inhibition at 10 µM
# [2] = molecular target: T1, C-X-C chemokine receptor type 1 (Homo sapiens, UniProt P25024); further: in other assays of this panel Not Active means under 50% inhibition at 10 µM
# T1 sequence (P25024 whole entry): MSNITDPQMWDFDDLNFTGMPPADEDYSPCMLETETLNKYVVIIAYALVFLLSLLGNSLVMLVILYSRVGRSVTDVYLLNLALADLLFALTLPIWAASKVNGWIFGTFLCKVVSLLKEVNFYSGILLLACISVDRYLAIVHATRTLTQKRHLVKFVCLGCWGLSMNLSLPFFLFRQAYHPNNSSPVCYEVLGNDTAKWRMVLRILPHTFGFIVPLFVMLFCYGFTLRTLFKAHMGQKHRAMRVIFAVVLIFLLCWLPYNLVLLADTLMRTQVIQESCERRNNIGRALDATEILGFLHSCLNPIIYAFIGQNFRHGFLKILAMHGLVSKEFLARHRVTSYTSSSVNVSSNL
# [3] = molecular target: Epidermal growth factor receptor (Homo sapiens, UniProt P00533); assay: DRUGMATRIX: Protein Tyrosine Kinase, EGF Receptor enzyme inhibition (substrate: Poly(Glu:Tyr)); format: cell-based, Insect cells; conditions: insect cells; Not Active = under 50% inhibition at 10 µM
# Epidermal growth factor receptor, sequence (P00533 whole entry): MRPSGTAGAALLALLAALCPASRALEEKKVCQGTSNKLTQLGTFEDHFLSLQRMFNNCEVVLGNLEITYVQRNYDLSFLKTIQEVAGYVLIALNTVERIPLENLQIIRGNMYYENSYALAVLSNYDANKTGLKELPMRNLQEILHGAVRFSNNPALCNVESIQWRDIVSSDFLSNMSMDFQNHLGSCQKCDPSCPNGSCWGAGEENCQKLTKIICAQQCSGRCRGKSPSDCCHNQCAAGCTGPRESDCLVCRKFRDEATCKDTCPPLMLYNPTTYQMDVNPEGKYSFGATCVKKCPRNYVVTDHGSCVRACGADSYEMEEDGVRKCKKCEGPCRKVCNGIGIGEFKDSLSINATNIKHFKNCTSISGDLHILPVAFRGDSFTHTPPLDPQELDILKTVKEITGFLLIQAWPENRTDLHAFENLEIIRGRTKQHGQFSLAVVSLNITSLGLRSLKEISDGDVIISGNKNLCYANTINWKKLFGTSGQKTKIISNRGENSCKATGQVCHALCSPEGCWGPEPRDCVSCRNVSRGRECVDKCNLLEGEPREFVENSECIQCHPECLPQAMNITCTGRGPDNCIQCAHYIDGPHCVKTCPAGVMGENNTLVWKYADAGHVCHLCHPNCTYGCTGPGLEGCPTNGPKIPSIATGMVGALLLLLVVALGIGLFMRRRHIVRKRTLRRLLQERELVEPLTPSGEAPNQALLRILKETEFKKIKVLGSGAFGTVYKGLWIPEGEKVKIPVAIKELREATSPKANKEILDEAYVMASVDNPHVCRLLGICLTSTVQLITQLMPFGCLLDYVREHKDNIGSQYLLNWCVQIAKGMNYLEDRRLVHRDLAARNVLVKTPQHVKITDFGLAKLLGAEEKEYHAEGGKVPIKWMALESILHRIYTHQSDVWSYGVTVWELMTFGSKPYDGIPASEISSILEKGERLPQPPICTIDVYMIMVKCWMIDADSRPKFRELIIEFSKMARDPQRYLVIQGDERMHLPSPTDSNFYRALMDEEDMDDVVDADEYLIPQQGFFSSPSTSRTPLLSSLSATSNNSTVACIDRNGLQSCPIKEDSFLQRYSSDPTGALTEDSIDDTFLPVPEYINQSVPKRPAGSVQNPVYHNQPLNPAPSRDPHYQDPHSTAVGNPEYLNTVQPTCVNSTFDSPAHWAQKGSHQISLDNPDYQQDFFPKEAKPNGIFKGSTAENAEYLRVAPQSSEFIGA
# Cathepsin G = molecular target: T2, Cathepsin G (Homo sapiens, UniProt P08311); format: tissue-based; conditions: neutrophil;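 further: inhibition of Cathepsin G enzyme activity, tested on an AMC-conjugated peptide substrate; in other assays of this panel Not Active means under 50% inhibition at 10 µM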
# T2 sequence (P08311 whole entry): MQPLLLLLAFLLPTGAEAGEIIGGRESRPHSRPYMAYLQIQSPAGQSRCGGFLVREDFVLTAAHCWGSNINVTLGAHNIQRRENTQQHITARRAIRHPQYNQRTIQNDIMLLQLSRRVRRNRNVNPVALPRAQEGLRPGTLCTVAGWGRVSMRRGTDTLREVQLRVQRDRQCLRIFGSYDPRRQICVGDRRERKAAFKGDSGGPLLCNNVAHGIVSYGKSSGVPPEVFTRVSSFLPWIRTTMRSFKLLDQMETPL
# Melanocortin receptor 3 = Melanocortin receptor 3 (Homo sapiens, UniProt P41968); format: cell membranes, HEK293, Membrane; conditions: hek293; further: in other assays of this panel Not Active means under 50% inhibition at 10 µM
# Melanocortin receptor 3, sequence (P41968 whole entry): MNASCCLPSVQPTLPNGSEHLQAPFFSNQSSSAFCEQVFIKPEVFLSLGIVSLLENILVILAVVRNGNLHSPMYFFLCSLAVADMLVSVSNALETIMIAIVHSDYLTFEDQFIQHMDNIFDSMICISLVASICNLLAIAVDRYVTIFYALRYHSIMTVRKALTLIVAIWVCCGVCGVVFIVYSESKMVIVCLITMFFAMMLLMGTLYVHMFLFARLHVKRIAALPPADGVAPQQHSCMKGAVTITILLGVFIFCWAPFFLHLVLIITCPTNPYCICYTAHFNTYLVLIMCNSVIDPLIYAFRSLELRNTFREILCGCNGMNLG
# [4] = molecular target: T3, Alpha-1A adrenergic receptor (Rattus norvegicus, UniProt P43140); assay: DRUGMATRIX: Alpha-1A adrenergic receptor radioligand binding (ligand: prazosin); format: cell membranes, Wistar, Submaxillary gland, Membrane; conditions: Not Active = under 50% inhibition at 10 µM
# T3 sequence (P43140 whole entry): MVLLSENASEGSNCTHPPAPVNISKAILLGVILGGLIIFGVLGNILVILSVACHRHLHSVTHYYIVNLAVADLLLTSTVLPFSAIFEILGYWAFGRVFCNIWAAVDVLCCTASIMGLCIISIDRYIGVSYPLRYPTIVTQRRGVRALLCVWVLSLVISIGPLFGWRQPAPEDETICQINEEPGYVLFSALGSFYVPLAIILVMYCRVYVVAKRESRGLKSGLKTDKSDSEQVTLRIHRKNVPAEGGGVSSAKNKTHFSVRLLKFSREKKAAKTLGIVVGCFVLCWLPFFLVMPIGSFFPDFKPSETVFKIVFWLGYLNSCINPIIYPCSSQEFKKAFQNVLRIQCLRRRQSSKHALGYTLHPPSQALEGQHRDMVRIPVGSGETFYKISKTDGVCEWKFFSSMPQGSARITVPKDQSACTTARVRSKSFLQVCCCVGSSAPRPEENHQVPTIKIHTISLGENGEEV
# Calcitonin receptor = molecular target: T4, Calcitonin receptor (Homo sapiens, UniProt P30988); format: cell membranes, Membrane; conditions: t47d; further: in other assays of this panel Not Active means under 50% inhibition at 10 µM
# T4 sequence (P30988 whole entry): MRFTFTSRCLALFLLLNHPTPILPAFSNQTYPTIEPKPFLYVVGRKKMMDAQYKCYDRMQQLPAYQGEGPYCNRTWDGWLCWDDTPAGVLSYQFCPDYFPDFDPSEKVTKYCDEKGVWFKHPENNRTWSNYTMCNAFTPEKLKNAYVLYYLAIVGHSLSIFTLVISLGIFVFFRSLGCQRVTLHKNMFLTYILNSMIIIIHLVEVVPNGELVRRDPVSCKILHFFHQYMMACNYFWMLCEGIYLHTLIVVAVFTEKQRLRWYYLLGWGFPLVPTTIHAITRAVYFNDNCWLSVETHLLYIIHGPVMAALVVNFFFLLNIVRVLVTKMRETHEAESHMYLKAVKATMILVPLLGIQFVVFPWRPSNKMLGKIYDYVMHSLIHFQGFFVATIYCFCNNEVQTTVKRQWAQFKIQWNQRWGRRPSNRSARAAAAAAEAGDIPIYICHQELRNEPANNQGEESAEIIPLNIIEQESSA
SMILES,IC50 [1],Ki [1],IC50 (Glycine receptor),IC50 [2],IC50 [3],IC50 (Cathepsin G),IC50 (Melanocortin receptor 3),IC50 [4],IC50 (Calcitonin receptor),IC50 ([4]; read-out: IC50) [µM],Ki ([4]; read-out: Ki) [µM]
O=C(c1ccccc1C(F)(F)F)N1CCC(Cc2ccccc2)CC1,Not Active,Not Active,Not Active,Not Active,Not Active,Not Active,Not Active,Not Active,Not Active,,
O=C/C=C/c1ccccc1,Not Active,Not Active,Not Active,Not Active,Not Active,Not Active,Not Active,Not Active,Not Active,,
Nc1ccc2c3c(cccc13)C(=O)NC2=O,Not Active,Not Active,Not Active,Not Active,Not Active,Not Active,Not Active,Not Active,Not Active,,
COc1ccc(C(=O)N2CCCC2=O)cc1,Not Active,Not Active,Not Active,Not Active,Not Active,Not Active,Not Active,Not Active,Not Active,,
O=c1cnn([C@@H]2O[C@H](CO)[C@@H](O)[C@H]2O)c(=O)[nH]1 [6-AZAURIDINE],Not Active,Not Active,Not Active,Not Active,Not Active,Not Active,Not Active,Not Active,Not Active,,
CC[C@H](C)[C@H]1O[C@]2(C=C[C@@H]1C)C[C@@H]1C[C@@H](C/C=C(\C)[C@@H](O[C@H]3C[C@H](OC)[C@@H](O[C@H]4C[C@H](OC)[C@@H](O)[C@H](C)O4)[C@H](C)O3)[C@@H](C)/C=C/C=C3\CO[C@@H]4[C@H](O)C(C)=C[C@@H](C(=O)O1)[C@]34O)O2.CO[C@H]1C[C@H](O[C@H]2[C@H](C)O[C@@H](O[C@@H]3/C(C)=C/C[C@@H]4C[C@@H](C[C@]5(C=C[C@H](C)[C@@H](C(C)C)O5)O4)OC(=O)[C@@H]4C=C(C)[C@@H](O)[C@H]5OC/C(=C\C=C\[C@@H]3C)[C@]54O)C[C@@H]2OC)O[C@@H](C)[C@@H]1O [ABAMECTIN],Not Active,Not Active,,Not Active,Not Active,Not Active,Not Active,Not Active,Not Active,,
NCCCC(O)(P(=O)(O)O)P(=O)(O)O [ALENDRONIC ACID],Not Active,Not Active,Not Active,Not Active,Not Active,Not Active,Not Active,Not Active,Not Active,,
Cc1nnc2n1-c1ccc(Cl)cc1C(c1ccccc1)=NC2 [ALPRAZOLAM],Not Active,Not Active,Not Active,Not Active,Not Active,Not Active,Not Active,Not Active,Not Active,,
Cn1c(=O)c2[nH]cnc2n(C)c1=O.Cn1c(=O)c2[nH]cnc2n(C)c1=O.NCCN [AMINOPHYLLINE],Not Active,Not Active,Not Active,Not Active,Not Active,Not Active,Not Active,Not Active,Not Active,,
CCC1(CCC(C)C)C(=O)NC(=O)NC1=O [AMOBARBITAL],Not Active,Not Active,Not Active,Not Active,Not Active,Not Active,Not Active,Not Active,Not Active,,
CC1(C)S[C@@H]2[C@H](NC(=O)[C@H](N)c3ccccc3)C(=O)N2[C@H]1C(=O)O [AMPICILLIN],Not Active,Not Active,Not Active,Not Active,Not Active,Not Active,Not Active,Not Active,Not Active,,
COc1ccc(C2C(=O)c3ccccc3C2=O)cc1 [ANISINDIONE],Not Active,Not Active,Not Active,Not Active,Not Active,Not Active,Not Active,Not Active,Not Active,,
O=C1O[C@H]([C@@H](O)CO)C(O)=C1O [ASCORBIC ACID],Not Active,Not Active,Not Active,Not Active,Not Active,Not Active,Not Active,Not Active,Not Active,,
CN1[C@@H]2CC[C@H]1C[C@@H](OC(=O)C(CO)c1ccccc1)C2 (stereo partly specified) [ATROPINE],Not Active,Not Active,Not Active,Not Active,Not Active,Not Active,Not Active,Not Active,Not Active,,
CC(C(=O)O)c1ccc2oc(-c3ccc(Cl)cc3)nc2c1 (stereo unspecified) [BENOXAPROFEN],Not Active,Not Active,Not Active,Not Active,Not Active,Not Active,Not Active,Not Active,Not Active,,
COc1ccc2cc3[n+](cc2c1OC)CCc1cc2c(cc1-3)OCO2.[Cl-] [BERBERINE CHLORIDE],Not Active,Not Active,Not Active,Not Active,Not Active,Not Active,Not Active,Not Active,Not Active,,
O=C(O)CCNC(=O)c1ccccc1 [BETAMIPRON],Not Active,Not Active,Not Active,Not Active,Not Active,Not Active,Not Active,Not Active,Not Active,,
CC(=O)Oc1ccc(C(c2ccc(OC(C)=O)cc2)c2ccccn2)cc1 [BISACODYL],Not Active,Not Active,Not Active,Not Active,Not Active,Not Active,Not Active,Not Active,Not Active,,
Cc1cc2c(OCC(CNC(C)(C)C)OC(=O)c3ccccc3)cccc2[nH]1 (stereo unspecified) [BOPINDOLOL],Not Active,Not Active,Not Active,Not Active,Not Active,Not Active,Not Active,Not Active,Not Active,,
Brc1c(NC2=NCCN2)ccc2nccnc12 [BRIMONIDINE],Not Active,Not Active,Not Active,Not Active,Not Active,Not Active,Not Active,,Not Active,6.34,2.57
O=c1cc(N2CCOCC2)oc2c(-c3ccccc3)cccc12 [LY-294002],Not Active,Not Active,Not Active,Not Active,,Not Active,Not Active,Not Active,Not Active,,
COc1cc2nc(N3CCN(C(=O)c4ccco4)CC3)nc(N)c2cc1OC [PRAZOSIN],Not Active,Not Active,Not Active,Not Active,Not Active,Not Active,Not Active,,Not Active,,
